Measured values: ChEMBL document CHEMBL1201862, “PubChem BioAssay data set” (2004)
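Following 48 hours of exposure in 96-well plates, responses at five concentrations were used to interpolate endpoints linearly. The concentration for 50% growth inhibition is given as GI50.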 Active and inactive are the calls of the source. No stated cut-off is given here; in the data, active = GI50 up to about 1.1 µM and inactive = higher.

Assays:
Experiment in all cases: inhibition of tumour cell growth, NCI panel, 48 h
HOP-92 = system: HOP-92
LXFL 529 = system: LXFL 529
DMS-273 = system: DMS-273
A549 = system: A549
SK-MEL-2 = system: SK-MEL-2
U-251 = system: U-251
Malme-3M = system: Malme-3M
SN12C = system: SN12C
K562 = system: K562
OVCAR-8 = system: OVCAR-8
XF498 = system: XF498
SK-MEL-5 = system: SK-MEL-5
NCI-H460 = system: NCI-H460
MOLT-4 = system: MOLT-4
HCT-15 = system: HCT-15
SR = system: SR
KM12 = system: KM12
SK-OV-3 = system: SK-OV-3
SW-620 = system: SW-620
786-0 = system: 786-0
SF-268 = system: SF-268
HT-29 = system: HT-29
CAKI-1 = system: CAKI-1
HOP-18 = system: HOP-18
OVCAR-4 = system: OVCAR-4
IGROV-1 = system: IGROV-1
CCRF-CEM = system: CCRF-CEM
EKVX = system: EKVX
COLO 205 = system: COLO 205
SK-MEL-28 = system: SK-MEL-28
NCI-H522 = system: NCI-H522
HCC 2998 = system: HCC 2998
M14 = system: M14
HCT-116 = system: HCT-116
HL-60 = system: HL-60
SNB-75 = system: SNB-75
M19-MEL = system: M19-MEL
SF-539 = system: SF-539
OVCAR-3 = system: OVCAR-3
KM-20L2 = system: KM-20L2
SF-295 = system: SF-295
RXF 393 = system: RXF 393
TK-10 = system: TK-10
ACHN = system: ACHN
UO-31 = system: UO-31
RPMI-8226 = system: RPMI-8226
NCI-H226 = system: NCI-H226
NCI-H23 = system: NCI-H23
SNB-19 = system: SNB-19
DMS-114 = system: DMS-114
A498 = system: A498
DLD-1 = system: DLD-1
OVCAR-5 = system: OVCAR-5
SNB-78 = system: SNB-78
HOP-62 = system: HOP-62
UACC-62 = system: UACC-62
LOX IMVI = system: LOX IMVI
UACC-257 = system: UACC-257

Measured: GI50

CC[C@@]12N=C(N(C)C)C[C@]1(O)ON=C2C
inactive: HOP-92 > 100 µM | LXFL 529 > 100 µM | DMS-273 > 100 µM | A549 > 100 µM | SK-MEL-2 > 100 µM | U-251 > 100 µM | Malme-3M > 100 µM | SN12C > 100 µM | K562 > 100 µM | OVCAR-8 > 100 µM | XF498 > 100 µM | SK-MEL-5 > 100 µM | NCI-H460 > 100 µM | MOLT-4 > 100 µM | SR > 100 µM | KM12 > 100 µM | SK-OV-3 > 100 µM | SW-620 > 100 µM | 786-0 > 100 µM | SF-268 > 100 µM | HT-29 > 100 µM | CAKI-1 > 100 µM | HOP-18 > 100 µM | OVCAR-4 > 100 µM | IGROV-1 > 100 µM | CCRF-CEM > 100 µM | EKVX > 100 µM | COLO 205 > 100 µM | SK-MEL-28 > 100 µM | NCI-H522 > 100 µM | HCC 2998 > 100 µM | M14 > 100 µM | HCT-116 > 100 µM | HL-60 > 100 µM | SNB-75 > 100 µM | M19-MEL > 100 µM | SF-539 > 100 µM | OVCAR-3 > 100 µM | KM-20L2 > 100 µM | SF-295 > 100 µM | RXF 393 > 100 µM | TK-10 > 100 µM | ACHN > 100 µM | UO-31 > 100 µM | RPMI-8226 > 100 µM | NCI-H226 > 100 µM | NCI-H23 > 100 µM | SNB-19 > 100 µM | DMS-114 > 100 µM | A498 > 100 µM | DLD-1 > 100 µM
> 100 µM: HCT-15

CNC(=O)CN1CC(=O)N(C)C(=O)C1
inactive: HOP-92 > 100 µM | LXFL 529 > 100 µM | DMS-273 > 100 µM | SK-MEL-2 > 100 µM | U-251 > 100 µM | Malme-3M > 100 µM | OVCAR-5 > 100 µM | K562 > 100 µM | XF498 > 100 µM | SK-MEL-5 > 100 µM | MOLT-4 > 100 µM | SR > 100 µM | KM12 > 100 µM | SK-OV-3 > 100 µM | SNB-78 > 100 µM | SW-620 > 100 µM | CAKI-1 > 100 µM | OVCAR-4 > 100 µM | IGROV-1 > 100 µM | CCRF-CEM > 100 µM | COLO 205 > 100 µM | HOP-62 > 100 µM | SK-MEL-28 > 100 µM | NCI-H522 > 100 µM | HCC 2998 > 100 µM | M14 > 100 µM | HL-60 > 100 µM | SNB-75 > 100 µM | M19-MEL > 100 µM | OVCAR-3 > 100 µM | KM-20L2 > 100 µM | RXF 393 > 100 µM | TK-10 > 100 µM | UACC-62 > 100 µM | LOX IMVI > 100 µM | UO-31 > 100 µM | RPMI-8226 > 100 µM | NCI-H226 > 100 µM | NCI-H23 > 100 µM | SNB-19 > 100 µM | DLD-1 > 100 µM
> 100 µM: HCT-15

Nc1cc(C(=O)NC2C3CC4CC(C3)CC2C4)nc(S)n1 (centres undefined)
inactive: HOP-92 > 100 µM | LXFL 529 > 100 µM | A549 > 100 µM | U-251 > 100 µM | Malme-3M > 100 µM | SN12C > 100 µM | K562 > 100 µM | OVCAR-8 > 100 µM | XF498 > 100 µM | SK-MEL-5 > 100 µM | NCI-H460 > 100 µM | UACC-257 > 100 µM | MOLT-4 > 100 µM | SR > 100 µM | SK-OV-3 > 100 µM | SNB-78 > 100 µM | SW-620 > 100 µM | 786-0 > 100 µM | SF-268 > 100 µM | HT-29 > 100 µM | CAKI-1 > 100 µM | OVCAR-4 > 100 µM | IGROV-1 > 100 µM | CCRF-CEM > 100 µM | EKVX > 100 µM | HOP-62 > 100 µM | SK-MEL-28 > 100 µM | NCI-H522 > 100 µM | HCC 2998 > 100 µM | M14 > 100 µM | HCT-116 > 100 µM | HL-60 > 100 µM | SNB-75 > 100 µM | M19-MEL > 100 µM | SF-539 > 100 µM | OVCAR-3 > 100 µM | KM-20L2 > 100 µM | RXF 393 > 100 µM | UO-31 > 100 µM | NCI-H226 > 100 µM | NCI-H23 > 100 µM | SNB-19 > 100 µM | A498 > 100 µM | DLD-1 > 100 µM
> 100 µM: HCT-15
